Test results from ChEMBL document CHEMBL3864139, “Phenylindenone isomers as divergent modulators of p38α MAP kinase” (Bioorg Med Chem Lett, 2016).
Calls of active or inactive are those of the source. No cut-off for these calls is given here.

Assays:
[1] = target: T1, Mitogen-activated protein kinase 14 (Homo sapiens, UniProt Q16539); assay: Inhibition of human recombinant full length GST-tagged MAPK14 phosphorylation expressed in Escherichia coli in presence of 500 uM of ATP by direct Z-LITE assay
[2] = target: T1, Mitogen-activated protein kinase 14; assay: Inhibition of human recombinant full length GST-tagged MAPK14 phosphorylation expressed in Escherichia coli in presence of 100 uM of ATP by direct Z-LITE assay
[3] = target: T1, Mitogen-activated protein kinase 14; assay: Activation of human recombinant full length GST-tagged MAPK14 expressed in Escherichia coli assessed as increase in MAPK14 phosphorylation at 10 uM in presence of 500 uM of ATP by direct Z-LITE assay relative to control
[4] = target: T1, Mitogen-activated protein kinase 14; assay: Activation of human recombinant full length GST-tagged MAPK14 expressed in Escherichia coli assessed as increase in MAPK14 phosphorylation at 10 to 10000 nM in presence of 500 uM of ATP by direct Z-LITE assay

T1 sequence (Q16539 whole entry): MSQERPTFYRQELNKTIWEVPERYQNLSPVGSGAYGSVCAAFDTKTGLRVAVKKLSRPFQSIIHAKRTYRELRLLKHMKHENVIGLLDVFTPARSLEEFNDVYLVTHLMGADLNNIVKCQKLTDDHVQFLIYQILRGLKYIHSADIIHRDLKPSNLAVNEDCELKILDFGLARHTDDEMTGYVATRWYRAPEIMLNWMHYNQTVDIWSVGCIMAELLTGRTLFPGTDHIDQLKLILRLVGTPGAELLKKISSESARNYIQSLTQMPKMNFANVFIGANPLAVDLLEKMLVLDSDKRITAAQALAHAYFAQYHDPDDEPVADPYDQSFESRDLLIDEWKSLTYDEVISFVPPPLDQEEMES

IC50 [1] | IC50 [2] | Activity [3] | Activity [4] | Structure (SMILES)
1350 nM | 899 nM |  |  | O=C1C(c2ccc(F)cc2)=C(c2ccncc2)c2ccccc21
 |  | 40 to 50% | Active | O=C1C(c2ccncc2)=C(c2ccc(F)cc2)c2ccccc21
